# Reference: ChEMBL document CHEMBL1155461, “Emerging targets in osteoporosis disease modification” (J Med Chem, 2010)
# Legend:
# MC3T3-E1 [1] = assay: Induction of osteogenesis in mouse MC3T3-E1 cells assessed as increase in osteoblast differentiation-associated ALP level at 0.03 uM; type: functional
# MC3T3-E1 [2] = assay: Induction of osteogenesis in mouse MC3T3-E1 cells assessed as increase in osteoblast differentiation-associated collagen synthesis at 0.03 uM; type: functional
# MC3T3-E1 [3] = assay: Induction of osteogenesis in mouse MC3T3-E1 cells assessed as increase in bone mineralization at 0.03 uM; type: functional
# [4] = Selectivity for integrin alphaVbeta3 over integrin alpha2Bbeta3
# Integrin alpha-V/beta-3 [5] = target: T1, Integrin alpha-V/beta-3 (Homo sapiens, UniProt P05106+P06756); assay: Inhibition of integrin alpha-V-beta-3-mediated adhesion of HEK293 cells; type: cell-based
# [6] = target: Integrin alpha-V/beta-5 (Homo sapiens) (UniProt P06756+P18084); assay: Inhibition of integrin alpha-V-beta-5-mediated adhesion of HEK293 cells; type: cell-based
# [7] = target: Integrin alpha-V/beta-1 (Homo sapiens) (UniProt P05556+P06756); assay: Inhibition of integrin alpha-V-beta-1-mediated adhesion of HEK293 cells; type: cell-based
# [8] = target: Integrin alpha-V/beta-6 (Homo sapiens) (UniProt P06756+P18564); assay: Inhibition of integrin alpha-V-beta-6-mediated adhesion of human HT-29 cells; type: cell-based
# Mus musculus [9] = species: Mus musculus; assay: Induction of bone formation in GPR55 knockout male mouse assessed as increase in tibia mass volume; type: functional
# Mus musculus [10] = species: Mus musculus; assay: Induction of bone formation in GPR55 knockout male mouse assessed as increase in femur mass volume; type: functional
# [11] = target: G-protein coupled receptor 55 (Homo sapiens, UniProt Q9Y2T6); assay: Binding affinity to GPR55
# Mus musculus [12] = assay: Antiosteoporotic activity in mouse assessed as decrease in bone resorption-associated serum CTX-1 level at 10 mg/kg administered 3 times a week for 8 weeks; type: functional; conditions: 1344 h
# Mus musculus [13] = assay: Antiosteoporotic activity in mouse assessed as increase in bone volume at 10 mg/kg administered 3 times a week for 8 weeks; type: functional, Bone element
# Cannabinoid receptor 1 = Cannabinoid receptor 1 (Homo sapiens, UniProt P21554)
# [14] = Selectivity for integrin alphaVbeta3 over integrin alphaVbeta5
# Integrin alpha-V/beta-3 [15] = target: T1, Integrin alpha-V/beta-3
# Target sequence in this assay (P05106 27-788 limits assumed): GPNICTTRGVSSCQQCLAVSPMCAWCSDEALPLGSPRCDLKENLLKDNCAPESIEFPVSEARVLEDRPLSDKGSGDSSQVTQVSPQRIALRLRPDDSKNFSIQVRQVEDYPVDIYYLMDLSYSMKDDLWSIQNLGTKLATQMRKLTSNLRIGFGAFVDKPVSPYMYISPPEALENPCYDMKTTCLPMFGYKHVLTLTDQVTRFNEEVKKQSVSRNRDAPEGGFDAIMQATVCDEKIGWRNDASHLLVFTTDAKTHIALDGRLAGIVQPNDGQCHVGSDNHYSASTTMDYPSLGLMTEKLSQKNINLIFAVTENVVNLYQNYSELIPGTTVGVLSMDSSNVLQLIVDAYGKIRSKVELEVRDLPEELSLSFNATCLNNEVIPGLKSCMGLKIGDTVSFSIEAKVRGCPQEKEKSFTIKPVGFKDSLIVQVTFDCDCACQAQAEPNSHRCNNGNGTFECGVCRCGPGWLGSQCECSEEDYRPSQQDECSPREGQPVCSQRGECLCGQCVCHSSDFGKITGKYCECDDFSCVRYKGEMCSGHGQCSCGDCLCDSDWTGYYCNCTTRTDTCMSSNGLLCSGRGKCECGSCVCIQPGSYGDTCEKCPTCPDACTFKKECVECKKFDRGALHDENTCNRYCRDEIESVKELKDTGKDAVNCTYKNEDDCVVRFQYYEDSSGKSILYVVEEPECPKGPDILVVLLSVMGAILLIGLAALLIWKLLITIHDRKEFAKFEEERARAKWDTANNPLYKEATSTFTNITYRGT
# Target sequence in this assay (P06756 31-889 limits assumed): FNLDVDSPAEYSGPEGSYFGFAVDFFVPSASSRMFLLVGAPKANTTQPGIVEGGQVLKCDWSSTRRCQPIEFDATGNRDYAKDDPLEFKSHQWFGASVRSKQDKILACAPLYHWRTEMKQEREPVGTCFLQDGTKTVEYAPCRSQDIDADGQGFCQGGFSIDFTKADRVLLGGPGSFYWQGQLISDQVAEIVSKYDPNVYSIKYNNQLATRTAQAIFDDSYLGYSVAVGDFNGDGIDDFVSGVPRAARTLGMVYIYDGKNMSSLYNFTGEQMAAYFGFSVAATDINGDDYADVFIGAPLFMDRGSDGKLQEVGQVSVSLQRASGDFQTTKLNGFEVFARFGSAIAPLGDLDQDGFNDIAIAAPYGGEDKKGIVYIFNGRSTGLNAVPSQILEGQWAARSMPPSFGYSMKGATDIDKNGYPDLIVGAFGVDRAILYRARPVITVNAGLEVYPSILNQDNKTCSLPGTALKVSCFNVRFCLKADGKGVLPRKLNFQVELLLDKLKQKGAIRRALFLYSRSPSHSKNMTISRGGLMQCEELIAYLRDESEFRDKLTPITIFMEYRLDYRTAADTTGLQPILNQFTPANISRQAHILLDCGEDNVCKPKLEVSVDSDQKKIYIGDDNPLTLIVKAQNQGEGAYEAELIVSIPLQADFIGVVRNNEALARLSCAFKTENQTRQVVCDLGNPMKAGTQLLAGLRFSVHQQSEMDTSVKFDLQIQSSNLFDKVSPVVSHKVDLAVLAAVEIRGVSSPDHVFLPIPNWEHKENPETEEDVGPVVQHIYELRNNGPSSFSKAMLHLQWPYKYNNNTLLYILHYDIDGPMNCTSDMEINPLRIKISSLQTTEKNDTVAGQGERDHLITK
# Target sequence in this assay (P06756 891-1048 limits assumed): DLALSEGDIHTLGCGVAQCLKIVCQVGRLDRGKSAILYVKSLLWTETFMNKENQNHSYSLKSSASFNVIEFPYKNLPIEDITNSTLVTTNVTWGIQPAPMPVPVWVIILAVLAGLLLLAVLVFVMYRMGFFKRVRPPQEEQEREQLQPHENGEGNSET
# [16] = target: T2, Extracellular calcium-sensing receptor (Homo sapiens, UniProt P41180)
# T2 sequence (P41180 whole entry): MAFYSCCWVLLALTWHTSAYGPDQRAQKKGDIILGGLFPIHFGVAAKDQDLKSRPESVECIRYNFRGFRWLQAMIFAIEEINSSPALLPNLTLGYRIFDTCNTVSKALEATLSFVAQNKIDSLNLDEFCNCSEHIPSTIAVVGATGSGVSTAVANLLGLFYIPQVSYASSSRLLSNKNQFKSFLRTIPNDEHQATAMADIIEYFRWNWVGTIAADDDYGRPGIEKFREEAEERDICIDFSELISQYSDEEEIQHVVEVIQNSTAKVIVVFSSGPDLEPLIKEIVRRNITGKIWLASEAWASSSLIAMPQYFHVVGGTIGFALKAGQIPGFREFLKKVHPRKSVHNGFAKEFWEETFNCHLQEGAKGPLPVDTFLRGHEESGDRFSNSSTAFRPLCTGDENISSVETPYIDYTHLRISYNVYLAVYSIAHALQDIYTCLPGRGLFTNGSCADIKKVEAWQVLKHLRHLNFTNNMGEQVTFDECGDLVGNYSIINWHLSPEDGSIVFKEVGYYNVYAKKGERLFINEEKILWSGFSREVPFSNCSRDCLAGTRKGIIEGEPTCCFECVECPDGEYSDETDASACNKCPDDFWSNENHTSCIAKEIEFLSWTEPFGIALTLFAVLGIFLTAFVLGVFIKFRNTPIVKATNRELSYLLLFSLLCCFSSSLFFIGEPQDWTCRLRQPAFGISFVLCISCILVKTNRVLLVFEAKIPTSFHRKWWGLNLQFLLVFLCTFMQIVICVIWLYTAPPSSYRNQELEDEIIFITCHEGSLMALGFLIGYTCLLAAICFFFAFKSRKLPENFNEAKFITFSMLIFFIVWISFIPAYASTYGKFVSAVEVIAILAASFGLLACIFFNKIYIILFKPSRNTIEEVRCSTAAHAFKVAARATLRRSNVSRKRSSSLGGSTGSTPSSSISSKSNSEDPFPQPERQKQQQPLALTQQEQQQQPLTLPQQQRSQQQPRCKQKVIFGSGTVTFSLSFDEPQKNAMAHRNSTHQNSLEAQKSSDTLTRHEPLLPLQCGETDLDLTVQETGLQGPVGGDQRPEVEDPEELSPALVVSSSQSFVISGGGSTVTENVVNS
# MC3T3-E1 [17] = assay: Induction of osteogenesis in mouse MC3T3-E1 cells assessed as increase in osteoblast differentiation-associated ALP level at 0.3 uM; type: functional
# MC3T3-E1 [18] = assay: Induction of osteogenesis in mouse MC3T3-E1 cells assessed as increase in osteoblast differentiation-associated collagen synthesis at 0.3 uM; type: functional
# MC3T3-E1 [19] = assay: Induction of osteogenesis in mouse MC3T3-E1 cells assessed as increase in bone mineralization at 0.3 uM; type: functional
# [20] = Induction of osteogenesis in rat ROS 17/2.8 cells assessed as stimulation of cell proliferation at 1 nM; type: functional
# Rattus norvegicus [21] = assay: Induction of bone formation in ovariectomized rat assessed as increase in bone mineralizing surface area at 30 mg/kg, po after 28 days (RVb = 30.4%); type: functional
# Rattus norvegicus [22] = assay: Induction of bone formation in ovariectomized rat assessed as bone mineral apposition rate per day at 30 mg/kg, po after 28 days (RVb = 1.43 uM); type: functional
# Homo sapiens [23] = assay: Antiosteoporotic activity in postmenopausal woman with osteoporosis assessed as decrease in bone resorption-associated serum CTX-1 level at 50 mg/kg; type: functional
# Homo sapiens [24] = assay: Antiosteoporotic activity in postmenopausal woman with osteoporosis assessed as decrease in bone resorption-associated urinary CTX-1 level at 50 mg/kg; type: functional; conditions: Urine
# Homo sapiens [25] = assay: Antiosteoporotic activity in postmenopausal woman with osteoporosis assessed as increase lumbar spine bone mineral density at 50 mg/kg; type: functional
# Homo sapiens [26] = assay: Antiosteoporotic activity in postmenopausal woman with osteoporosis assessed as increase hip bone mineral density at 50 mg/kg; type: functional, Bone of hip region
# MC3T3-E1 [27] = assay: Induction of osteogenesis in mouse MC3T3-E1 cells assessed as increase in osteoblast differentiation-associated collagen synthesis at 0.01 uM; type: functional
# MC3T3-E1 [28] = assay: Induction of osteogenesis in mouse MC3T3-E1 cells assessed as increase in bone mineralization at 1 uM; type: functional
# Osteoclast [29] = assay: Inhibition of osteoclastogenesis in RANKL-stimulated mouse osteoclast at 10 uM; type: functional
# Osteoclast [30] = assay: Inhibition of osteoclastogenesis in RANKL-stimulated mouse osteoclast at 20 uM; type: functional
# Integrin alpha-V/beta-3 [31] = target: T1, Integrin alpha-V/beta-3; assay: Inhibition of integrin alpha-V-beta-3-mediated adhesion of human cells M21 cells; type: cell-based
# Target sequence in this assay (P05106 27-788 limits assumed): as the sequence (P05106 27-788 limits assumed) above
# Target sequence in this assay (P06756 31-889 limits assumed): as the sequence (P06756 31-889 limits assumed) above
# Target sequence in this assay (P06756 891-1048 limits assumed): as the sequence (P06756 891-1048 limits assumed) above
# Cathepsin K = Cathepsin K (Homo sapiens, UniProt P43235); assay: Inhibition of humanized rabbit cathepsin K
# [32] = Selectivity for cathepsin K over cathepsin B
# [33] = Selectivity for cathepsin K over cathepsin L
# [34] = Selectivity for cathepsin K over cathepsin S
# [35] = Selectivity for cathepsin K over cathepsin V
# [36] = Selectivity for cathepsin K over cathepsin H
# [37] = Selectivity for cathepsin K over cathepsin F
# Cannabinoid receptor 1, sequence (P21554 whole entry): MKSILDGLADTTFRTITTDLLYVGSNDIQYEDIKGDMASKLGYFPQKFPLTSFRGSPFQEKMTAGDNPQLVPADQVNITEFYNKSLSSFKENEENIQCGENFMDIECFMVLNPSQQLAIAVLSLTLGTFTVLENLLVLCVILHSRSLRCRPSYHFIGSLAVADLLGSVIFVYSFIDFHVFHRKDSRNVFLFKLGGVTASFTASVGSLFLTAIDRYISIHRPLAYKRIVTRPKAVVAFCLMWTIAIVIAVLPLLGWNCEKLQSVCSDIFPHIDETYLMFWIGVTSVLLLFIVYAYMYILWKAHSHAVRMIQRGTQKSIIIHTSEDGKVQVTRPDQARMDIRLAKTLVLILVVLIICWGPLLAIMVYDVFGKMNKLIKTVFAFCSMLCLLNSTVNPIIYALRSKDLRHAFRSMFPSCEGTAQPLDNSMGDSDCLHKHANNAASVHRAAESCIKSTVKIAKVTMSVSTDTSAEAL
# G-protein coupled receptor 55, sequence (Q9Y2T6 whole entry): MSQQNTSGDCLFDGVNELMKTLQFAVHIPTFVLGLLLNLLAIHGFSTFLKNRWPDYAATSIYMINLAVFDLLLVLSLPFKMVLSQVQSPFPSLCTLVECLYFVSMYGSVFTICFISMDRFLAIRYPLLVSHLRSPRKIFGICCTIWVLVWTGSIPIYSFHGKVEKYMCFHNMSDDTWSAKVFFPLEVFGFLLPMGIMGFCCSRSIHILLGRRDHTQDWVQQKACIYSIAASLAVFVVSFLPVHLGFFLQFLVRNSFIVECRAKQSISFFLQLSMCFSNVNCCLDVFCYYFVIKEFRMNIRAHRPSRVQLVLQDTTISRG
smiles,measurement,setting,value
COc1cc([C@H]2OC[C@H](Cc3cc(OC)c(O[C@@H]4O[C@H](CO)[C@@H](O)[C@H](O)[C@H]4O)c(OC)c3)[C@@H]2CO)cc(OC)c1O [MANGLIESIDE E],Activity,MC3T3-E1 [1],112%
same,Activity,MC3T3-E1 [2],118%
same,Activity,MC3T3-E1 [3],109%
O=C(O)C[C@H](Cc1nc(CCCc2ccc3c(n2)NCCC3)no1)c1ccc2c(c1)OCO2,Selectivity ratio,[4],67
same,Activity,Integrin alpha-V/beta-3 [5],0.65 nM
same,Activity,[6],1.7 nM
same,Activity,[7],2.6 nM
same,Activity,[8],2.7 µM
C=C(C)[C@@H]1CCC(C)=C[C@H]1c1c(O)cc(CCCCC)cc1O [CANNABIDIOL],Activity,Mus musculus [9],136%
same,Activity,Mus musculus [10],149%
same,EC50,[11],445 nM
same,inhibition in vivo at 10 mg/kg,Mus musculus [12],18%
same,Activity,Mus musculus [13],10%
CCCCCCC(C)(C)c1cc(OC)c([C@H]2C=C(CO)[C@@H]3C[C@H]2C3(C)C)c(OC)c1,Ki,Cannabinoid receptor 1,≥ 10000 nM
CC(C)(C)OC(=O)[C@@H]1C[C@H](CC(=O)O)[C@H]2CC[C@H](NC(=O)[C@@H](N)CCCNC(=N)N)C(=O)N21,Selectivity ratio,[14],3.5
same,IC50,Integrin alpha-V/beta-3 [15],304 nM
CCOC(=O)CCc1ccc(C#N)c(OC[C@H](O)CNC(C)(C)CC2Cc3ccccc3C2)c1,IC50,[16],520 nM
CO[C@@]1(C)CC/C=C(\C)CCC2=C(C)CO[C@H]2/C=C(\C)CC[C@@H]1O,Activity,MC3T3-E1 [17],127.8%
same,Activity,MC3T3-E1 [18],108.2%
same,Activity,MC3T3-E1 [19],110.6%
C[C@@H]1O[C@@H](O[C@H]2[C@H](Oc3cc(O)c4c(c3)O[C@H](c3ccc(O)cc3)CC4=O)O[C@H](CO)[C@@H](O)[C@@H]2O)[C@H](O)[C@H](O)[C@H]1O [NARINGIN],Activity,[20],150%
CN(c1ccccc1CNc1nc(Nc2ccc3c(c2)CC(=O)N3)ncc1C(F)(F)F)S(C)(=O)=O,Activity,Rattus norvegicus [21],40.6%
same,mineral apposition rate,Rattus norvegicus [22],1.96 µm/day
CCCN1CCN(c2ccc(C(=O)NC3(C(=O)NCC#N)CCCCC3)cc2)CC1 [BALICATIB],inhibition in vivo at 50 mg/kg,Homo sapiens [23],61%
same,inhibition in vivo at 50 mg/kg,Homo sapiens [24],55%
same,Activity,Homo sapiens [25],4.46%
same,Activity,Homo sapiens [26],2.25%
COc1c(O)cc2c(O)c3c(O)c(O)c(O[C@@H]4O[C@@H](C)[C@H](O)[C@@H](O)[C@H]4O)cc3c(O)c2c1O,Activity,MC3T3-E1 [27],111%
same,Activity,MC3T3-E1 [28],125%
O=C(O[C@@H]1Cc2c(O)cc(O)cc2O[C@@H]1c1cc(O)c(O)c(O)c1)c1cc(O)c(O)c(O)c1 [EPIGALOCATECHIN GALLATE],inhibition at 10 µM,Osteoclast [29],17%
same,inhibition at 20 µM,Osteoclast [30],32%
N=C(N)N=C(N)Nc1cc(Cl)cc(Cl)c1,IC50,Integrin alpha-V/beta-3 [31],33.5 nM
CS(=O)(=O)c1ccc(-c2cn(CC(F)(F)F)nc2[C@@H]2CCC(Cl)(Cl)C[C@H]2C(=O)NC2(C#N)CC2)cc1,IC50,Cathepsin K,0.62 nM
same,Selectivity ratio,[32],> 16000
same,Selectivity ratio,[33],4700
same,Selectivity ratio,[34],4300
same,Selectivity ratio,[35],1100
same,Selectivity ratio,[36],> 140000
same,Selectivity ratio,[37],110
